Reference: patent US20190119284A1, “ErbB Inhibitors and Uses Thereof” (The Regents of the University of California, priority 2016, published 2019)
Read-outs that look alike come from different tables or passages of the source.

How the values were obtained:
NEK2 = biological target: T1, NEK2 (Homo sapiens, UniProt P51955); assay: Nanosyn in vitro kinase profiling: NEK2; type: biochemical; conditions: for inhibition at 1 µM: compound at 1 μM
T1 sequence (P51955 1-445): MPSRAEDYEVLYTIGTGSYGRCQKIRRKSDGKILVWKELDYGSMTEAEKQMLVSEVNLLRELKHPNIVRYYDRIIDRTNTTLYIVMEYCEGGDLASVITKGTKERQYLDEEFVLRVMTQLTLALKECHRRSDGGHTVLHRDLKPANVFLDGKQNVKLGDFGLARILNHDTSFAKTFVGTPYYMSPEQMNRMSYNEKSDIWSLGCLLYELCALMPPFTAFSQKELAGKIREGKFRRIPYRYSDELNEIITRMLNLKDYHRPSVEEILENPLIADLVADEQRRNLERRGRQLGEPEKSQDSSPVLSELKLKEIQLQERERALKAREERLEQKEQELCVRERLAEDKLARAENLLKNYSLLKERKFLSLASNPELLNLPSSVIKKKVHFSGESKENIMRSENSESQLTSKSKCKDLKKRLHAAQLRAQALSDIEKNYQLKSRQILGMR
Protocol: (§1) This was confirmed by in vitro profiling against a panel of kinases, with compound 2 only showing potent inhibition of EGFR and Ab1 (Table 2).
(§2) In vitro Kinome Screen. In vitro profiling of compound 2 at 100 nM was conducted by Nanosyn.

EPH-A2 = EPH-A2 (Homo sapiens, UniProt P29317); assay: Nanosyn in vitro kinase profiling: EPH-A2; type: biochemical; conditions: for inhibition at 1 µM: compound at 1 μM
Chain of EPH-A2 (P29317 24-976, species assumed): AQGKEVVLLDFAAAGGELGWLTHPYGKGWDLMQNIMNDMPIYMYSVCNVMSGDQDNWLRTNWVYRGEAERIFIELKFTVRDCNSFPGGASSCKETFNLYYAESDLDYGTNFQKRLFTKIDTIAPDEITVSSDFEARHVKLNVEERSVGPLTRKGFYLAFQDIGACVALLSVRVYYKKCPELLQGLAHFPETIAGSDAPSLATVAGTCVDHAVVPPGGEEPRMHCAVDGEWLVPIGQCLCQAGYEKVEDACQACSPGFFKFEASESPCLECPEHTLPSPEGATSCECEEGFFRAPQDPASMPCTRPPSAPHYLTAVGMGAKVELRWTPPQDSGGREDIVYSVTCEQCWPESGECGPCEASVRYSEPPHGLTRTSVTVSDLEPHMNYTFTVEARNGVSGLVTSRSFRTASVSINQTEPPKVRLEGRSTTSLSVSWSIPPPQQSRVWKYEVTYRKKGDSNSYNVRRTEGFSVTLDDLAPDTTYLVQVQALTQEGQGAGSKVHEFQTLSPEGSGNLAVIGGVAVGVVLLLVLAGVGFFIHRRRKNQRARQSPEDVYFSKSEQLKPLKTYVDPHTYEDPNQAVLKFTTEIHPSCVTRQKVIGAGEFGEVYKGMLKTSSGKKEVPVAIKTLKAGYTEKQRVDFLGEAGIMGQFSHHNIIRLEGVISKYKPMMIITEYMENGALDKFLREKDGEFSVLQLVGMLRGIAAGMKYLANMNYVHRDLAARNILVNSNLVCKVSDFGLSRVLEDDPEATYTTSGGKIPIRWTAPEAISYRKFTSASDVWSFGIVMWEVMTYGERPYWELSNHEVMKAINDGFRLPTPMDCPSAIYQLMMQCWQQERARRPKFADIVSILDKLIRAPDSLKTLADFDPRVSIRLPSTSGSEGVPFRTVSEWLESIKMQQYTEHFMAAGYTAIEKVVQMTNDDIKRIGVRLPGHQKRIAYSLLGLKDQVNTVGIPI
Protocol: as §1, §2

[1] = biological target: 2YF/3wt + NRG Ba/F3 cells (HER2YF/HER3wt) (Homo sapiens, UniProt P04626, Y1005F/Y1023F/Y1112F/Y1127F/Y1139F/Y1196F/Y1221F/Y1222F/Y1248F, cells depend on it); assay: Ba/F3 proliferation assay, 2YF/3wt + NRG; type: cell-based
Chain of 2YF/3wt + NRG Ba/F3 cells (HER2YF/HER3wt) (P04626 whole entry Y1005F/Y1023F/Y1112F/Y1127F/Y1139F/Y1196F/Y1221F/Y1222F/Y1248F): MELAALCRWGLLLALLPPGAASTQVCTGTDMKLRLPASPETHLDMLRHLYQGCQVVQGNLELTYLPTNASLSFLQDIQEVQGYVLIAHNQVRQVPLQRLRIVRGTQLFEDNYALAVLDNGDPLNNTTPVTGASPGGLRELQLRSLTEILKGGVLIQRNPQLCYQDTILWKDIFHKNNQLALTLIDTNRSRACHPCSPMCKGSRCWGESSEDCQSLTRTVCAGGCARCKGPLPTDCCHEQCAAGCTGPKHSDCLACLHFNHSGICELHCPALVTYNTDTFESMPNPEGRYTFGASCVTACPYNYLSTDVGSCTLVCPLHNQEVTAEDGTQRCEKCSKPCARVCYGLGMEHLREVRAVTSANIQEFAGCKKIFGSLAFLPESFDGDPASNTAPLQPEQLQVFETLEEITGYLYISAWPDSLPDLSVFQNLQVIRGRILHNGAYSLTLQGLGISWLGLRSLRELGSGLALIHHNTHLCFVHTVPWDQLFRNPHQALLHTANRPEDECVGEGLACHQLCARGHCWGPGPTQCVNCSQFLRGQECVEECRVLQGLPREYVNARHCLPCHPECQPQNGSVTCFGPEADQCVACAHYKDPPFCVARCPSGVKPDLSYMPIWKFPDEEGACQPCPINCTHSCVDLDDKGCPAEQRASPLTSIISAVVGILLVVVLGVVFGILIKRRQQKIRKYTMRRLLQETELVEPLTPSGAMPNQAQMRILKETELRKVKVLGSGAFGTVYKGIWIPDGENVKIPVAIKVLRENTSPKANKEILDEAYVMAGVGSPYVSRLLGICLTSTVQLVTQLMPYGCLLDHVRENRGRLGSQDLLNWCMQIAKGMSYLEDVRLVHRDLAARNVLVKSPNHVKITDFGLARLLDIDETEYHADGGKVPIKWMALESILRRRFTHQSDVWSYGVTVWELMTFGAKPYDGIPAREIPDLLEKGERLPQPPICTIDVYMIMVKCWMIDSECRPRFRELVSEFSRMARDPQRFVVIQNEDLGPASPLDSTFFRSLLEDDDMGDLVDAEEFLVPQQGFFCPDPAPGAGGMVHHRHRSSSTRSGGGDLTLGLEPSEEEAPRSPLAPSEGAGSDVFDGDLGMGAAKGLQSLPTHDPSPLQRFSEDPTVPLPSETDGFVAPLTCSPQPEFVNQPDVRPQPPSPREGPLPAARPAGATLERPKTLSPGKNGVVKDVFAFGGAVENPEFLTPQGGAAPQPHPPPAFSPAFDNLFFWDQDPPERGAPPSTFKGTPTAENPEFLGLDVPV
Summary of the method: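 Ba/F3 cells stably expressing HER3 and HER2 with 9 C-terminal Tyr→Phe mutations, selected for NRG dependence after IL-3 withdrawal. Cells were given DMSO or compound plus NRG (50 ng/mL final); proliferation normalized to DMSO, fit by log(inhibitor) vs response with variable slope.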

[2] = biological target: T2, 2YF-YVMA/3wt + NRG Ba/F3 cells (Homo sapiens, UniProt P04626, DUP772-775/Y1005F/Y1023F/Y1112F/Y1127F/Y1139F/Y1196F/Y1221F/Y1222F/Y1248F, cells depend on it); assay: Ba/F3 proliferation assay, 2YF-YVMA/3wt + NRG; type: cell-based
T2 construct: reported HER2 oncogenic mutants in the HER2YF construct
T2 sequence (P04626 with tags, fused parts or gaps with the stated changes): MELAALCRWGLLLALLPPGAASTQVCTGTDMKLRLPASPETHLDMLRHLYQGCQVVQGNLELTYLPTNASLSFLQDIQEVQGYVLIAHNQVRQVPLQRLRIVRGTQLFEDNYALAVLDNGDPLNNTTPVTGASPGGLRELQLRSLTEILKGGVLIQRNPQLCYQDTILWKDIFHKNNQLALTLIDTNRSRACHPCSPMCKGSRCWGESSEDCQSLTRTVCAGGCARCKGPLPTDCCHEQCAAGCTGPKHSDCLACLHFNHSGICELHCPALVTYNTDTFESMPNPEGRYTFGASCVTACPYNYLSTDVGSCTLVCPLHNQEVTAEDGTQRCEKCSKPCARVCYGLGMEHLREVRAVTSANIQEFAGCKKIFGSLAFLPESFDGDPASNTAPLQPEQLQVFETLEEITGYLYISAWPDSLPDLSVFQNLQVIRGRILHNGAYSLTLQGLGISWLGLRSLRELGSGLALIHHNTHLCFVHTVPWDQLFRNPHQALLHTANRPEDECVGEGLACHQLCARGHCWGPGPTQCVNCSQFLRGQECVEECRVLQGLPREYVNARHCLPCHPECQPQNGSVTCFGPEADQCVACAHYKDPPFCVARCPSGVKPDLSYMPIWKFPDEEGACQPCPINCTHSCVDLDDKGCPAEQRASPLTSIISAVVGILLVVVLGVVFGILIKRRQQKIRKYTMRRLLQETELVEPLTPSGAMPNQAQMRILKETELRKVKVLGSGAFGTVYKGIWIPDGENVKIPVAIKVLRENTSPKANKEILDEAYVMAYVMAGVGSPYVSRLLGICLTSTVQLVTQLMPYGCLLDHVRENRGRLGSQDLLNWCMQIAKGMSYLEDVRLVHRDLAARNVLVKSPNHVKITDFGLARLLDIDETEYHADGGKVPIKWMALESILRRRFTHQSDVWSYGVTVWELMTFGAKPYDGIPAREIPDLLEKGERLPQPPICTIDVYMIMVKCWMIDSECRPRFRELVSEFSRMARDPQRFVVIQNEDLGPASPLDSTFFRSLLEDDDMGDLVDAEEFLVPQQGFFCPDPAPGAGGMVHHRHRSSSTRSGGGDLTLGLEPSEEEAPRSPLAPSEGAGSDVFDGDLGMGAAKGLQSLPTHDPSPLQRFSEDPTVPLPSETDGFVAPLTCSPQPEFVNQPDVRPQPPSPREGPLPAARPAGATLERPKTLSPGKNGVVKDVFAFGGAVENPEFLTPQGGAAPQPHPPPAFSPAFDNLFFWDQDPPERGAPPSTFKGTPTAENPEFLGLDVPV
Protocol: For the 2YF/3wt cells, the parental cells were first transduced with HER3 according to the protocol above and were then spun down at 500×g for 5 min and re-suspended in media supplemented with 10 ng/mL IL-3 and 3 μg/mL puromycin (Invitrogen). Cells were maintained in these conditions for seven days, passaging as required. After seven days the cells were spun down, washed with fresh media, and then used for a subsequent round of transduction according to the protocol above with HER2YF virus. […] The cells were maintained in these conditions for seven days, passaging as required. After seven days the cells were spun down, washed with fresh media, and then suspended in media supplemented with 10 ng/mL of NRG. Cells were maintained in these conditions for seven days to select for a NRG dependent population of 2YF/3wt Ba/F3 cells that were then maintained as described above. The same protocol was used for the 2YF-L755S/3wt, 2YF-YVMA/3wt, and 2YF-VC/3wt cell lines using the indicated constructs.
Proliferation Assays. […] The following day media was changed to fresh media that contained either DMSO or the indicated concentration of drug plus NRG (50 ng/mL final concentration) as indicated. […] For all normalized assays, proliferation was normalized to the DMSO control condition. […]

[3] = system: 2YF/3wt + IL-3 Ba/F3 cells; assay: Ba/F3 proliferation assay, 2YF/3wt + IL-3; type: cell-based; conditions: Mus musculus, BaF3; Table 4; ± S.D., n = 3; 48 h Cell Titer Glo
Protocol: To validate the screen and test the effectiveness of counter-screening with either the same 2YF/3wt Ba/F3 cell line or the parental Ba/F3's in the presence of IL-3 to remove cytotoxic primary hits, we first tested a panel of kinase inhibitors with established mechanisms of action.
Proliferation Assays. For adherent cell lines, cells were plated onto opaque white 96 well plates (Greiner cat #655083) and allowed to adhere overnight. The following day media was changed to fresh media that contained either DMSO or the indicated concentration of drug plus NRG (50 ng/mL final concentration) as indicated. Plates were incubated at 37° C. for 72 h and proliferation was read out using Cell Titer Glo (Promega) according to the manufacturer's protocol. For Ba/F3 cell proliferation, cells, drug dilution, and any necessary growth factors (10 ng/mL IL-3 or 6.25 ng/mL NRG) were combined in a well of a 96 well plate. Plates were incubated at 37° C. for 48 h and proliferation was read out using Cell Titer Glo according to the manufacturer's protocol. For all normalized assays, proliferation was normalized to the DMSO control condition. All graphs were plotted in GraphPad Prism 6 and fit with a non-linear regression of the log(inhibitor) vs response with a variable slope where shown. All graphs are averages (+/−standard deviation) of biological triplicates each performed in technical triplicate unless otherwise noted. If only one biological replicate was performed standard deviations were derived from the technical replicates.

COc1ccc(-c2ccco2)cc1Nc1ncnc2[nH]nc(-c3ccco3)c12 [compound 2, 3-(furan-2-yl)-N-(5-(furan-2-yl)-2-methoxyphenyl)-1H-pyrazolo[3,4-d]pyrimidin-4-amine] was tested, and the inhibition at 0.1 µM (NEK2; compound at 100 nM) was 1.53%, the inhibition at 1 µM (NEK2) was 2.98% and the inhibition at 0.1 µM (EPH-A2; compound at 100 nM) was 2.42%. It also gave an inhibition at 1 µM (EPH-A2) of 21%.

COc1ccc(-c2ccoc2)cc1Nc1ncnc2[nH]cc(-c3cc[nH]n3)c12 [compound 3, N-(5-(furan-3-yl)-2-methoxyphenyl)-5-(1H-pyrazol-3-yl)-7H-pyrrolo[2,3-d]pyrimidin-4-amine] gave a GI50 ([1]; Table 4; ± S.D., n = 3; 48 h Cell Titer Glo; read-out: IC50, 2YF/3wt + NRG) of 6.8 ± 0.2 nM, a GI50 ([2]; Table 4; ± S.D., n = 2; read-out: IC50, 2YF-YVMA/3wt + NRG) of 11.4 ± 0.1 nM and an inhibition at 1 µM (NEK2) of -9%. For the same compound, the IC50 [3] was 2540 ± 217 nM and the inhibition at 1 µM (EPH-A2) was 28%.

CS(=O)(=O)CCNCc1ccc(-c2ccc3ncnc(Nc4ccc(OCc5cccc(F)c5)c(Cl)c4)c3c2)o1 [lapatinib] gave a GI50 ([1]; read-out: IC50, 2YF/3wt + NRG; Table 4; ± S.D., n = 3; 48 h Cell Titer Glo) of 63.6 ± 12.5 nM, a GI50 ([2]; read-out: IC50, 2YF-YVMA/3wt + NRG; Table 4; ± S.D., n = 2) greater than 10000 nM and an IC50 [3] greater than 3330 nM.
